Structures are written as SMILES.

Aurora B/INCENP, sequence (Q96GD4 whole entry): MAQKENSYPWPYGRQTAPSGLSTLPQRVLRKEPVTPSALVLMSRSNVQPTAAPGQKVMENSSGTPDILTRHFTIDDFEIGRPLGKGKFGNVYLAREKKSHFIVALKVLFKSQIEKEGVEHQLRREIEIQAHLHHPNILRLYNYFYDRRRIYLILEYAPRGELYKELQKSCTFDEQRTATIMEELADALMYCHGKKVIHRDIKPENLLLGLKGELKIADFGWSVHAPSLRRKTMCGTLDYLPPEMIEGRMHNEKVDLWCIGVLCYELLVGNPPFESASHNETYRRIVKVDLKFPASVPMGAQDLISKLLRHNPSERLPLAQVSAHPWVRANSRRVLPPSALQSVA
Aurora B/INCENP, sequence (Q9NQS7 whole entry partner): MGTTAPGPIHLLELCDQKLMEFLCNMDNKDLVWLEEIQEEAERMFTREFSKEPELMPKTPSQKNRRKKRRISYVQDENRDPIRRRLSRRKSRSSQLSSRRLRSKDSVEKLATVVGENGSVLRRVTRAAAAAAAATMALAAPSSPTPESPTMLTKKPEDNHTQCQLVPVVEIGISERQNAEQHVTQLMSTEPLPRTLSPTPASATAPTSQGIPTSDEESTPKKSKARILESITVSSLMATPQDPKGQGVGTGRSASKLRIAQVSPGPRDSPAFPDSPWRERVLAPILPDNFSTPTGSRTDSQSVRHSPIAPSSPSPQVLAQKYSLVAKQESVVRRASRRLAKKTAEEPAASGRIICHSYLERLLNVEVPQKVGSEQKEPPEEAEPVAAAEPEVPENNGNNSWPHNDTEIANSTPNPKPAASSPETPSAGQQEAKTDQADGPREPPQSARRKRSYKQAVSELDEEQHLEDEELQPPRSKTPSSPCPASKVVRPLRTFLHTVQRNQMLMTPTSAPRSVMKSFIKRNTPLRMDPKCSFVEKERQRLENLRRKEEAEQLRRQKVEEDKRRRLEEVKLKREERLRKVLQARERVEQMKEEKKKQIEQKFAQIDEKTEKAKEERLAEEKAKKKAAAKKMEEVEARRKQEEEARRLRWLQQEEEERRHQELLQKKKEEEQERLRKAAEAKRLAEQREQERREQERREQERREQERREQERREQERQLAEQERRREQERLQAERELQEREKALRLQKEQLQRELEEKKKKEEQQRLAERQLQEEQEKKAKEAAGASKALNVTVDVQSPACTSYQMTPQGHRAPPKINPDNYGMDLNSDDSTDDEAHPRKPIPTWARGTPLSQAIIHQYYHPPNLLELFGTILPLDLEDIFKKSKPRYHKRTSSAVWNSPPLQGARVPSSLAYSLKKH

This test has as its target Aurora B/INCENP (Homo sapiens, UniProt Q96GD4). Briefly: Determination of inhibition of AIK: Aurora B/INCENP Direct Fluorescence Polarization (IMAP) assay. The class given is biochemical. To be noted: 10 uM ATP, 0.8 nM Aurora B/INCENP, 45 min at room temperature; read-out: IC50 of Exemplified Compounds Against AIK B. How it is done:
Detection of the reaction product is performed by addition of Progressive IMAP binding reagent (Molecular Devices). Reaction product may be determined quantitatively by FP using an Analyst HT plate reader (Molecular Devices) with an excitation wavelength at 485 nm and emission at 530 nm and using a Fluorescein 505 dichroic mirror.
The assay reaction may be initiated as follows: 2 ul of (3×) 300 nM Fl-Peptide/30 uM ATP was added to each well of the plate, followed by the addition of 2 ul of (3×) inhibitor (2 fold serial dilutions for 11 data points for each inhibitor) containing 15% DMSO. Two microliters of (3×) 2.4 nM AuroraB/INCENP solution may be added to initiate the reaction (final enzyme concentration was 0.8 nM for Aurora B/INCENP). The reaction mixture may then be incubated at room temperature for 45 min, and quenched and developed by addition of 20 ul of 1 to 400 diluted Progressive IMAP binding reagent in 1× proprietary Progressive IMAP binding buffer A. Fluorescence polarization readings of the resulting reaction mixtures may be measured after a 60-minute incubation at room temperature.
IC50 values may be calculated by non-linear curve fitting of the compound concentrations and fluorescent polarization values to the standard IC50 equation.
For orientation: Polarisation of emitted light reports the rotation of a fluorescent probe.
For orientation: IC50 means the point on the concentration scale where inhibition reaches its midpoint. Regarding `Cc1cnc2[nH]c3c(OCC4CCN(C)CC4)ccc(-c4cccc(S(=O)(=O)C5CC5)c4)c3c2c1` [Compound 179, 5-(3-(cyclopropylsulfonyl)phenyl)-3-methyl-8-((1-methylpiperidin-4-yl)methoxy)-9H-pyrido[2,3-b]indole], the IC50 is 6 to 10 nM. Regarding `CCS(=O)(=O)c1cccc(-c2cc(C(=O)NCCN(C)C)c(C)c3[nH]c4ncc(C)cc4c23)c1` [Compound 113], the IC50 fell in the range of 6 to 10 nM. On to `Cc1cnc2[nH]c3c(OC[C@@H](CN(C)C)OP(=O)(O)O)ccc(-c4cccc(S(=O)(=O)C5CC5)c4)c3c2c1` [Compound 315, (R)-1-(5-(3-(cyclopropylsulfonyl)phenyl)-3-methyl-9H-pyrido[2,3-b]indol-8-yloxy)-3-(dimethylamino)propan-2-yl dihydrogen phosphate], for which the IC50 is no more than 5 nM. For `CCOc1ccc(-c2cccc(S(=O)(=O)CC)c2)c2c1[nH]c1ncc(C)cc12` [Compound 171, 8-ethoxy-5-(3-(ethylsulfonyl)phenyl)-3-methyl-9H-pyrido[2,3-b]indole], the IC50 fell in the range of 6 to 10 nM. For the molecule `Cc1cnc2[nH]c3c(OCC4CCN(C)CC4)ccc(-c4cccc(NC(=O)C5CC5)c4)c3c2c1` [Compound 182, N-(3-(3-methyl-8-((1-methylpiperidin-4-yl)methoxy)-9H-pyrido[2,3-b]indol-5-yl)phenyl)cyclopropanecarboxamide], the half-maximal inhibitory concentration (IC50) was 6 to 10 nM. As to `CCS(=O)(=O)c1cccc(-c2cc(C(=O)NCCOC)c(C)c3[nH]c4ncc(C)cc4c23)c1` [Compound 90, N-(2-(methoxy)ethyl)-5-(3-(ethylsulfonyl)phenyl)-3,8-dimethyl-9H-pyrido[2,3-b]indole-7-carboxamide], the IC50 was 6 to 10 nM.

As for `Cc1cnc2[nH]c3c(OCCCN(C)C)ccc(-c4cccc(NC(=O)C5CC5)c4)c3c2c1` [Compound 195, N-(3-(8-(3-(dimethylamino)propoxy)-3-methyl-9H-pyrido[2,3-b]indol-5-yl)phenyl)cyclopropanecarboxamide], the IC50 was no less than 11 nM. As to `CCS(=O)(=O)c1cccc(-c2ccc(OC[C@H](O)CN(C)C)c3[nH]c4ncc(C)cc4c23)c1` [Compound 232, (R)-1-(dimethylamino)-3-(5-(3-(ethylsulfonyl)phenyl)-3-methyl-9H-pyrido[2,3-b]indol-8-yloxy)propan-2-ol], the IC50 fell in the range of 6 to 10 nM. As for `CCS(=O)(=O)c1cccc(-c2ccc(OCC3CCN(C)CC3)c3[nH]c4ncc(C)cc4c23)c1` [Compound 177, 5-(3-(ethylsulfonyl)phenyl)-3-methyl-8-((1-methylpiperidin-4-yl)methoxy)-9H-pyrido[2,3-b]indole], the IC50 was in the range of 6 to 10 nM. `CCS(=O)(=O)c1cccc(-c2ccc(OCCCN(C)CCOP(=O)(O)O)c3[nH]c4ncc(C)cc4c23)c1` [Compound 308, 2-((3-(5-(3-(ethylsulfonyl)phenyl)-3-methyl-9H-pyrido[2,3-b]indol-8-yloxy)propyl)(methyl)amino)ethyl dihydrogen phosphate]: the IC50 was no more than 5 nM.

Turning to `CCS(=O)(=O)c1cccc(-c2ccc(C)c3[nH]c4ncc(C)cc4c23)c1` [Compound 18, 5-(3-(ethylsulfonyl)phenyl)-3,8-dimethyl-9H-pyrido[2,3-b]indole], the IC50 is 6 to 10 nM.

Source of the values: patent publication US20100120717A1, “KINASE INHIBITORS” (priority 2006, published 2010).
